In BindingDB's records for doi:10.1021/jm00398a022 (University of Wisconsin, 1988) one finds Ki data, which are given here for one compound.

The Ki is a measure of affinity in units of concentration, obtained from inhibition or displacement. Read a low Ki as higher affinity.

The target of this assay is Cathepsin D (Oryctolagus cuniculus). As to the kind of experiment: Inhibition of rabbit liver cathepsin D at pH 4.0.

Compound `COC(=O)[C@H](Cc1ccccc1)NC(=O)[C@H](CC(C)C)NC(=O)CC(O)[C@H](CC(C)C)NC(=O)[C@H](Cc1c[nH]cn1)NC(=O)COC(=O)C(C)(C)C` (stereo partly drawn) [POA-His-Sta-Leu-PheOMe] registered an inhibitory constant (Ki) of 3.5 µM.
